From PubChem BioAssay AID1963430 (Molecular Pharmacology Branch, DTP, NCI, 2024)
Values joined by “and” are separate entries in the source; they are usually repeats but may differ in a detail not shown here. Equal entries are not always repeated.

Tested on: 521955-158-R2-J5-PDC complex spheroid growth, % test/control
Experiment: Anticancer human tumor 521955-158-R2-J5-PDC patient-derived pancreatic carcinoma cell line growth inhibition [Asc]
Settings: for viability, T/C: stronger effect = lower value
Procedure, shortened: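 Complex solid-tumor spheroids incorporating human endothelial and mesenchymal stem cells received single agents or combinations over half-log dilution ranges anchored to clinical Cmax.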
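Also: spheroids exposed to agents for 7 days before readout.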
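For viability, T/C in this document: 100% = DMSO vehicle control viability.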

For `C#Cc1c(F)ccc2cc(O)cc(-c3ncc4c(N5CC6CCC(C5)N6)nc(OCC56CCCN5CC(F)C6)nc4c3F)c12` (configuration not stated) + CNC(C)C(=O)NC1CN(S(=O)(=O)c2cccc(S(=O)(=O)N3CCC4CCC(C(=O)NC(c5ccccc5)c5ccccc5)N4C(=O)C(NC(=O)C(C)NC)C3)c2)CCC2CCC(C(=O)NC(c3ccccc3)c3ccccc3)N2C1=O, the IC50 (curve of first compound, second compound 0.01 µM) was < 31.6 nM, the IC50 (curve of first compound, second compound 0.0316 µM) was < 31.6 nM and the IC50 (curve of first compound, second compound 0.1 µM) was < 31.6 nM. For the same compound, the IC50 (curve of first compound, second compound 0.316 µM) was < 31.6 nM, the IC50 (curve of first compound, second compound 1 µM) was < 31.6 nM and the viability, T/C (second compound 0.01 µM, first compound 0.0316 µM) was 22.8%. It also gave a viability, T/C (second compound 0.01 µM, first compound 0.1 µM) of 22.5%, a viability, T/C (second compound 0.01 µM, first compound 0.316 µM) of 20.6% and a viability, T/C (second compound 0.01 µM, first compound 1 µM) of 16.3%. For the same compound, the viability, T/C (second compound 0.01 µM, first compound 3.16 µM) was 19.2%, the viability, T/C (second compound 0.01 µM, first compound 10 µM) was 18.2% and the viability, T/C (second compound 0.0316 µM, first compound 0.0316 µM) was 20.3%. For the same compound, the viability, T/C (second compound 0.0316 µM, first compound 0.1 µM) was 25.8%, the viability, T/C (second compound 0.0316 µM, first compound 0.316 µM) was 19.4% and the viability, T/C (second compound 0.0316 µM, first compound 1 µM) was 13.4%. For the same compound, the viability, T/C (second compound 0.0316 µM, first compound 3.16 µM) was 17.7%, the viability, T/C (second compound 0.0316 µM, first compound 10 µM) was 19.9% and the viability, T/C (second compound 0.1 µM, first compound 0.0316 µM) was 22.1%. The viability, T/C (second compound 0.1 µM, first compound 0.1 µM) was 16.6%, the viability, T/C (second compound 0.1 µM, first compound 0.316 µM) was 21.6% and the viability, T/C (second compound 0.1 µM, first compound 1 µM) was 15.7%. The viability, T/C (second compound 0.1 µM, first compound 3.16 µM) was 18.3%, the viability, T/C (second compound 0.1 µM, first compound 10 µM) was 17% and the viability, T/C (second compound 0.316 µM, first compound 0.0316 µM) was 20.8%. It also gave a viability, T/C (second compound 0.316 µM, first compound 0.1 µM) of 17.1%, a viability, T/C (second compound 0.316 µM, first compound 0.316 µM) of 18.1% and a viability, T/C (second compound 0.316 µM, first compound 1 µM) of 22.8%. The viability, T/C (second compound 0.316 µM, first compound 3.16 µM) was 17.3%, the viability, T/C (second compound 0.316 µM, first compound 10 µM) was 13.9% and the viability, T/C (second compound 1 µM, first compound 0.0316 µM) was 21.6%. The viability, T/C (second compound 1 µM, first compound 0.1 µM) was 18.7%, the viability, T/C (second compound 1 µM, first compound 0.316 µM) was 27.5% and the viability, T/C (second compound 1 µM, first compound 1 µM) was 26.6%. For the same compound, the viability, T/C (second compound 1 µM, first compound 3.16 µM) was 19.7% and the viability, T/C (second compound 1 µM, first compound 10 µM) was 16.8%.
`O=C(c1ccc(F)c(F)c1Nc1ccc(I)cc1F)N1CC(O)([C@@H]2CCCCN2)C1` was tested, and the viability, T/C (compound 0.00316 µM) was 73.4% and 81.6% and 64.9%, the viability, T/C (compound 0.01 µM) was 73.2% and 72.4% and 79.1% and the viability, T/C (compound 0.0316 µM) was 61.1% and 71.3% and 49.6%. The viability, T/C (compound 0.1 µM) was 47.8% and 51.4% and 31%, the viability, T/C (compound 0.316 µM) was 41.1% and 47.1% and 32.3% and the viability, T/C (compound 1 µM) was 33.1% and 31.4% and 26%. The IC50 (curve of compound) was 90.2 nM and 184 nM and 30.9 nM.
